In patent US10179790B2 (THOMAS HELLEDAYS STIFTELSE FOR MEDICINSK FORSKNING, priority 2014, dated 2019):

Tests used:
MTH1 = MTH1 (Homo sapiens, UniProt P36639); assay: MTH1 enzymatic assay and IC50 value determination (malachite green, 96- and 384-well format); assay type: biochemical; conditions: hydrolysis of dGTP (100 μM), MTH1 6 nM, pyrophosphatase-coupled malachite green, 15 minutes at 22° C.
In short: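 MTH1 (6 nM) hydrolysed dGTP (100 μM) for 15 min at 22 °C in Tris-acetate buffer with Mg2+, DTT, Tween 20 and excess pyrophosphatase, 1% DMSO. Pi detected with malachite green at 630 nm. IC50 from nonlinear 4-parameter fit of 11–12-point dilution series.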

cancer cell = assay: Cell viability assay (resazurin); assay type: cell-based; conditions: 72 h; 3 days with compound, resazurin fluorescence; cell line not named
In short: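 Cells in DMEM GlutaMAX or line-appropriate medium are exposed to compound for 3 days at 37 °C, 5% CO2. Viability is read as resazurin fluorescence (Ex544/Em590) after 2 h incubation. In the 384-well format, cells are seeded onto 11 pre-dispensed concentrations (final DMSO <1%) and read after 3 h resazurin.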

IC50 (MTH1) [nM]	IC50 (cancer cell) [nM]	SMILES
< 200	< 500	Cc1c(Cl)cccc1-c1cc(NCCc2cccc(NC(=O)OC(C)C)c2)nc(N)n1 [Example 153, isopropyl N-[3-[2-[[2-amino-6-(3-chloro-2-methyl-phenyl)pyrimidin-4-yl]amino]ethyl]phenyl]carbamate]
< 200	< 500	Cc1cccc(-c2cc(NCCNc3ccc4c(c3)NC(=O)CO4)nc(N)n2)c1C [Example 23, 6-[(2-{[2-amino-6-(2,3-dimethylphenyl)pyrimidin-4-yl]amino}ethyl)amino]-3,4-dihydro-2H-1,4-benzoxazin-3-one]
< 200	< 500	Cc1cccc(-c2cc(NCCOc3ccc(C(N)=O)cn3)nc(N)n2)c1C [Example 26, 6-(2-{[2-amino-6-(2,3-dimethylphenyl)pyrimidin-4-yl]amino}ethoxy)pyridine-3-carboxamide]
< 200	< 500	Cc1ccc(C)c(-c2cc(NCCc3ccc(S(N)(=O)=O)cc3)nc(N)n2)c1 [Example 70, 4-(2-{[2-amino-6-(2,5-dimethylphenyl)pyrimidin-4-yl]amino}ethyl)benzene-1-sulfonamide]
< 200	< 500	Cc1c(Cl)cccc1-c1cc(NCCCNc2nccc(C(N)=O)n2)nc(N)n1 [Example 168, 2-[3-[[2-amino-6-(3-chloro-2-methyl-phenyl)pyrimidin-4-yl]amino]propylamino]pyrimidine-4-carboxamide]
< 200	< 500	Cc1c(-c2cc(NCCc3ccc(S(C)(=O)=O)cc3)nc(N)n2)cccc1C(F)(F)F [Example 198, N4-[2-(4-methanesulfonylphenyl)ethyl]-6-[2-methyl-3-(trifluoromethyl)phenyl]pyrimidine-2,4-diamine]
< 200	< 500	Cc1c(Cl)cccc1-c1cc(NCCc2cccc(NS(=O)(=O)CC(C)C)c2)nc(N)n1 [Example 85, N-[3-(2-{[2-amino-6-(3-chloro-2-methylphenyl)pyrimidin-4-yl]amino}ethyl)phenyl]-2-methylpropane-1-sulfonamide]
< 200	< 500	Cc1c(Cl)cccc1-c1cc(NCCNc2nccc(C(N)=O)n2)nc(N)n1 [Example 146, 2-[2-[[2-amino-6-(3-chloro-2-methyl-phenyl)pyrimidin-4-yl]amino]ethylamino]pyrimidine-4-carboxamide]
< 200	< 500	Cc1c(Cl)cccc1-c1cc(NCCc2ccc(O)c(C(N)=O)c2)nc(N)n1 [Example 173, 5-[2-[[2-amino-6-(3-chloro-2-methyl-phenyl)pyrimidin-4-yl]amino]ethyl]-2-hydroxy-benzamide]
< 200	< 500	CS(=O)(=O)c1cccc(NCCNc2cc(-c3cccc(Cl)c3Cl)nc(N)n2)c1 [Example 106, 6-(2,3-dichlorophenyl)-N4-[2-(3-methylsulfonylanilino)ethyl]pyrimidine-2,4-diamine]
< 200	< 500	Cc1c(Cl)cccc1-c1cc(NCCOc2ccc(S(N)(=O)=O)cn2)nc(N)n1 [Example 213, 6-(2-(2-amino-6-(3-chloro-2-methylphenyl)pyrimidin-4-ylamino)ethoxy)pyridine-3-sulfonamide]
< 200	< 500	CCNC(=S)Nc1ccc(CCNc2cc(-c3cccc(Cl)c3C)nc(N)n2)cc1 [Example 117, 1-[4-[2-[[2-amino-6-(3-chloro-2-methyl-phenyl)pyrimidin-4-yl]amino]ethyl]phenyl]-3-ethyl-thiourea]
< 200	< 500	Cc1c(Cl)cccc1-c1cc(NCCCNc2ccc(S(N)(=O)=O)cc2)nc(N)n1 [Example 163, 4-[3-[[2-amino-6-(3-chloro-2-methyl-phenyl)pyrimidin-4-yl]amino]propylamino]benzenesulfonamide]
< 200	< 500	Cc1c(Cl)cccc1-c1cc(NCCc2cccc(S(N)(=O)=O)c2)nc(N)n1 [Example 53, 3-(2-{[2-amino-6-(3-chloro-2-methylphenyl)pyrimidin-4-yl]amino}ethyl)benzene-1-sulfonamide]
< 200	< 500	Cc1c(Cl)cc(Cl)cc1-c1cc(NCCc2ccc(C(=O)N3CCOCC3)cc2)nc(N)n1 [Example 109, [4-[2-[[2-amino-6-(3,5-dichloro-2-methyl-phenyl)pyrimidin-4-yl]amino]ethyl]phenyl]-morpholino-methanone]
< 200	< 500	Cc1c(Cl)cccc1-c1cc(NCCOc2ccc(/C(N)=N/O)cc2)nc(N)n1 [Example 203, (Z)-4-(2-{[2-amino-6-(3-chloro-2-methylphenyl)pyrimidin-4-yl]amino}ethoxy)-N′-hydroxybenzene-1-carboximidamide]
< 200	< 500	Cc1c(Cl)cccc1-c1cc(NCCc2ccc(C(N)=NO)cc2)nc(N)n1 [Example 107, 4-[2-[[2-amino-6-(3-chloro-2-methyl-phenyl)pyrimidin-4-yl]amino]ethyl]-N′-hydroxy-benzamidine]
< 200	< 500	CCNC(=O)Nc1ccc(CCNc2cc(-c3cccc(Cl)c3C)nc(N)n2)cc1 [Example 112, 1-[4-[2-[[2-amino-6-(3-chloro-2-methyl-phenyl)pyrimidin-4-yl]amino]ethyl]phenyl]-3-ethyl-urea]
< 200	< 500	Cc1c(Cl)cccc1-c1cc(NCCc2ccc(NC(=O)OC(C)C)cc2)nc(N)n1 [Example 119, isopropyl N-[4-[2-[[2-amino-6-(3-chloro-2-methyl-phenyl)pyrimidin-4-yl]amino]ethyl]phenyl]carbamate]
< 200	< 500	Cc1c(Cl)cccc1-c1cc(NCCc2ccc(NC(=O)OCC(C)C)cc2)nc(N)n1 [Example 120, isobutyl N-[4-[2-[[2-amino-6-(3-chloro-2-methyl-phenyl)pyrimidin-4-yl]amino]ethyl]phenyl]carbamate]
< 200	< 500	Cc1c(F)ccc(-c2cc(NCCc3ccc(C(N)=O)cc3)nc(N)n2)c1C [Example 77, 4-(2-{[2-amino-6-(4-fluoro-2,3-dimethylphenyl)pyrimidin-4-yl]amino}ethyl)benzamide]
< 200	< 500	Cc1c(Cl)cccc1-c1cc(NCCNc2cccc(S(=O)(=O)C(C)C)c2)nc(N)n1 [Example 166, 6-(3-Chloro-2-methyl-phenyl)-N4-[2-(3-isopropylsulfonylanilino)ethyl]pyrimidine-2,4-diamine]
< 200	< 500	Cc1c(Cl)cccc1-c1cc(NCCc2ccc(NS(=O)(=O)CC(C)C)cc2)nc(N)n1 [Example 87, N-[4-(2-{[2-amino-6-(3-chloro-2-methylphenyl)pyrimidin-4-yl]amino}ethyl)phenyl]-2-methylpropane-1-sulfonamide]
< 200	< 500	CCOC(=O)Nc1cccc(CCNc2cc(-c3cccc(Cl)c3C)nc(N)n2)c1 [Example 47, ethyl N-[3-(2-{[2-amino-6-(3-chloro-2-methylphenyl)pyrimidin-4-yl]amino}ethyl)phenyl]carbamate]
< 200	< 500	Cc1cc(C)c(-c2cc(NCCc3ccc(S(N)(=O)=O)cc3)nc(N)n2)cc1C [Example 65, 4-(2-{[2-amino-6-(2,4,5-trimethylphenyl)pyrimidin-4-yl]amino}ethyl)benzene-1-sulfonamide]
